Test: in vivo
Details: male, SD, rat, iv, 1 mg/kg
Protocol: The preliminary pharmacokinetic study was conducted in male SD rats. Two groups with three mice each were set by random. […] The liquid chromatography tandem mass spectrometry (LC-MS/MS) method was pre-built. The system consisted of LC-20AD High Performance Liquid Chromatography (Shimazu, Japan) with Venusil C18 Plus column (2.1*50 mm, 5.0 μm, Agela, USA) and API 4000 mass spectrometry (AB, USA). […] In the LC method, mobile phase A was distilled water and mobile phase B was acetonitrile. The rinse port wash solution was methanol. The flow rate was 0.700 ml/min and the initial back pressure was 8.9 Mpa. […] The subsequent calculation was under a non-compartmental model statistical moment method with WinNonlin 7.0 software (USA).
Two modes of administration were applied. One was the intragastric injection (i.g., or “PO” for “per os”) at a dosage (D) of 3.0 mg/kg, while the other was the intravenous injection (i.v., or “IV”) at a dosage of 1.0 mg/kg.

AUC(0-inf): 184 ± 74.4 ng·h/mL | AUC(0-t): 159 ± 65 ng·h/mL | Cmax: 284 ± 270 ng/mL | Tmax: 5 min | half-life: 32.3 ± 13.7 min
SMILES: CCCCS(=O)(=O)Oc1ccc(/C=C/C(=O)Nc2cccc(Br)c2)cc1 [Spartinin C10, (E)-4–(3-((3-bromophenyl)amino)-3-oxoprop-1-en-1-yl)phenylbutane-1-sulphonate]

— article PMC9848256 (Journal of Enzyme Inhibition and Medicinal Chemistry, 2023)
